From paper PMC8041284, “Tunable Methacrylamides for Covalent Ligand Directed Release Chemistry” (Journal of the American Chemical Society, 2021)
Where a SMILES comes first, the peptide text is derived from it. The star is where a group is joined. Cbz = O=C(OCc1ccccc1)*; CH2F = FC*

Target: BTK (Homo sapiens, UniProt Q06187)
Test: biochemical
Conditions: read-out: BTK inhibition (%), 0.75 uM BTK, […] probe 3l, 15 min preincubation

BTK, sequence (Q06187 402-655 limits assumed): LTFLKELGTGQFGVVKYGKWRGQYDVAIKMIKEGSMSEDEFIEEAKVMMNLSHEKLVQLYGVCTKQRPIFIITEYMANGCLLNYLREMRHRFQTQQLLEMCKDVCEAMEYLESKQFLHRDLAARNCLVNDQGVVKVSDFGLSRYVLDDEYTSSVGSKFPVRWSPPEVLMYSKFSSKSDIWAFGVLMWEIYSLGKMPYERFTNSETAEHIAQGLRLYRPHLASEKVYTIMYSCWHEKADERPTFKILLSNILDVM

Row | inhibition at 10 µM [%] | Compound
1 | -14.5 | Cc1c(F)cc(C(=O)NC2CC2)cc1-c1ccc(C(=O)NCC(C)(C)C)cn1 [PCM-0095751]
2 | -17.9 | O=c1cc(N2CCOCC2)oc2c1ccc1ccccc12 [PCM-0215173]
3 | 6.9 | O=CCc1ccccc1 [PCM-0216613]
4 | -3.1 | CC1CC(=O)c2c(ccc3c2C(=O)c2cccc(O)c2C3=O)C1 (centres unmarked) [PCM-0215599]
5 | 0 | CCCCCCC1CCC(=O)O1 (centres unmarked) [PCM-0216147]
6 | -2.8 | Nc1cccc(S(=O)(=O)N2CCCN(S(=O)(=O)c3ccc4c(c3)OCCO4)CC2)c1 [PCM-0215556]
7 | -0.9 | Nc1ccn([C@@H]2O[C@H](COP(=O)(O)O)[C@@H](O)[C@H]2O)c(=O)n1 [PCM-0216146]
8 | -7.8 | CC(C)[C@H](N)C(=O)OCCOCn1cnc2c(=O)[nH]c(N)nc21 [PCM-0086005]
9 | -6.2 | CC(C)n1nc(-c2ccc3oc(N)nc3c2)c2c(N)ncnc21 [PCM-0095423]
10 | 17.2 | C[C@@H]1COC(Nc2ccc3ncnc(Nc4ccc(OCc5nccs5)c(Cl)c4)c3c2)=N1 [PCM-0095513]
11 | 51.7 | Cc1[nH]c2ccccc2c1C1=C(NCCc2ccc(F)cc2)C(=O)N(C)C1=O [PCM-0215349]
12 | 13.8 | O=C(Nc1nccs1)C(c1cc(F)ccc1O)N1Cc2ccccc2C1=O (centres unmarked) [PCM-0215692]
13 | -10.8 | COc1cc2c(NC3CCN(C(C)C)CC3)nc(C3CCCCC3)nc2cc1OCCCN1CCCC1 [PCM-0215758]
14 | 37.4 | OC(CN1CCN(c2cccc(Cl)c2)CC1)C(c1ccccc1)c1ccccc1 (centres unmarked) [PCM-0095352]
15 | 47.5 | COC(=O)C1=C(C)NC(C)=C(C(=O)OCCN(C)Cc2ccccc2)C1c1cccc([N+](=O)[O-])c1 (centres unmarked) [PCM-0064729]
16 | -18.5 | C[n+]1ccccc1/C=N/O [PCM-0086551]
17 | 9.4 | Nc1nc(NC2CC2)c2ncn([C@H]3C=C[C@@H](CO)C3)c2n1 [PCM-0086436]
18 | 33.8 | c1cn2cc(-c3ccc4cn[nH]c4c3)nc(Nc3ccc(N4CCOCC4)cc3)c2n1 [PCM-0095758]
19 | -2.8 | O=c1ccoc2cc(O)ccc12 [PCM-0216563]
20 | -47.7 | CC(/C=C1\SC(=S)N(CC(=O)O)C1=O)=C\c1ccccc1 [PCM-0095314]
21 | 36.6 | Cc1ccc(NC(=O)c2ccc(CN3CC[C@H](N(C)C)C3)c(C(F)(F)F)c2)cc1Nc1nccc(-c2cncnc2)n1 [PCM-0214863]

Row | inhibition at 10 µM [%] | Compound
22 | 15.4 | Cc1ncc(Cl)cc1NCc1ccc(C(=O)N[C@@H](CC2CCCC2)C(=O)NC2CC2)s1 [PCM-0215421]
23 | -29.3 | CCCc1cc(C)[nH]c(=O)c1CNC(=O)c1cc(-c2ccc(N3CCN(C(C)C)CC3)nc2)cc2c1cnn2C(C)C [PCM-0095761]
24 | -0.8 | Clc1cccc(-c2nnnn2Cc2cccnc2)c1Cl [PCM-0215469]
25 | -5.1 | CC(C)C[C@H](NC(=O)CNC(=O)[C@H](Cc1ccc(O)cc1)NC(=O)[C@H](CO)NC(=O)[C@H](Cc1c[nH]c2ccccc12)NC(=O)[C@H](Cc1cnc[nH]1)NC(=O)[C@@H]1CCC(=O)N1)C(=O)N[C@@H](CCCN=C(N)N)C(=O)N1CCC[C@H]1C(=O)NCC(N)=O [PCM-0216273]
26 | -1.5 | CC(C)Oc1ccc(-c2cnc3c(-c4ccnc5ccccc45)cnn3c2)cc1 [PCM-0215300]
27 | -6.9 | O=C(/C=C/c1cccnc1)c1ccncc1 [PCM-0215906]
28 | 10.1 | C[N+](C)(C)C[C@H](O)CC(=O)[O-] [PCM-0090364]
29 | -4.6 | COc1ccc2[nH]c(=O)oc2c1 [PCM-0216501]
30 | 80.9 | COC(=O)C1=C(C)NC(C)=C(C(=O)O[C@@H]2CCCN(Cc3ccccc3)C2)[C@@H]1c1cccc([N+](=O)[O-])c1 [PCM-0214706]
31 | 11.6 | CNC(=O)[C@H](Cc1ccccc1)NC(=O)[C@H](CC(C)C)[C@H](CSc1cccs1)C(=O)NO [PCM-0215194]
32 | -5.4 | CC(C)[C@H](NC(=O)OCc1ccccc1)C(=O)N[C@@H](C)C(=O)N[C@@H](CC(=O)O)C(=O)CF [PCM-0215591] (Cbz-Val-Ala-Asp-CH2F)
33 | 0 | Cc1cc(/C(O)=C2\C(=O)C(=O)N(CCCN3CCOCC3)C2c2ccncc2)ccc1OCc1ccccc1 (centres unmarked) [PCM-0215180]
34 | 4.7 | CC1COC2(CCN(c3nc(=O)c4cc(C(F)(F)F)cc([N+](=O)[O-])c4s3)CC2)O1 (centres unmarked) [PCM-0095074]
35 | 7.7 | O=c1[nH]c(=O)n([C@H]2C[C@H](O)[C@@H](CO)O2)cc1/C=C/Br [PCM-0215082]
36 | 29.6 | CN(Cc1cc(Br)cc(Br)c1N)C1CCCCC1 [PCM-0086201]
37 | 11.7 | CCc1cc2c(cc1N1CCC(N3CCOCC3)CC1)C(C)(C)c1[nH]c3cc(C#N)ccc3c1C2=O [PCM-0095523]
38 | -31.5 | c1cnc2cc3c(cc2n1)[C@@H]1CNC[C@H]3C1 [PCM-0064570]
39 | -20.8 | CO[C@@H]1[C@@H](OC)[C@H](C)[C@@](O)(CC(=O)O)O[C@H]1[C@H](C)[C@H]1O[C@@]2(CC[C@@](C)([C@H]3CC[C@@](C)([C@@H]4O[C@@H]([C@H]5O[C@](C)(O)[C@H](C)C[C@@H]5C)C[C@@H]4O[C@@H]4C[C@H](OC)[C@@H](OC)[C@H](C)O4)O3)O2)C[C@H](O)[C@H]1C [PCM-0216004]
40 | -7.6 | COc1ccc(COc2ccc(Cc3cnc(N)nc3N)cc2OC)cc1 [PCM-0095630]
41 | 8.6 | CC(C)(C)NC(=O)N[C@H](C(=O)N1C[C@H]2[C@@H]([C@H]1C(=O)NC(CC1CCC1)C(=O)C(N)=O)C2(C)C)C(C)(C)C (some centres unmarked) [PCM-0214929]
42 | 56 | CC(C)c1cc(C(C)C)c(CC(=O)NS(=O)(=O)Oc2c(C(C)C)cccc2C(C)C)c(C(C)C)c1 [PCM-0095235]

Row | inhibition at 10 µM [%] | Compound
43 | 14.7 | C[C@@H]1CC[C@]2(C(=O)O)CC[C@]3(C)C(=CC[C@@H]4[C@@]5(C)CC[C@H](O[C@@H]6OC[C@H](O)[C@H](O)[C@H]6O)C(C)(C)[C@@H]5CC[C@]43C)[C@@H]2[C@]1(C)O [PCM-0216436]
44 | -10 | NCCCC[C@@H]1NC(=O)[C@@H](Cc2ccccc2)NC(=O)[C@H](CC(=O)O)NC(=O)CNC(=O)[C@H](CCCN=C(N)N)NC1=O [PCM-0215471]
45 | -6.2 | CCCCc1nc(C)c(CC(=S)N(C)C)c(=O)n1Cc1ccc(-c2ccccc2-c2nn[nH]n2)cc1 [PCM-0215150]
46 | 12.4 | N#CCC1(n2cc(-c3ncnc4[nH]ccc34)cn2)CN(C2CCN(C(=O)c3ccnc(C(F)(F)F)c3F)CC2)C1 [PCM-0216009]
47 | 10.8 | CC(C)(C)C(=O)Nc1ccc2c(c1)C(=O)C(=O)c1ccccc1-2 [PCM-0215348]
48 | 7.6 | O=C(O)C(Cc1c[nH]c2ccccc12)N1C(=O)c2ccccc2C1=O (centres unmarked) [PCM-0095449]
49 | 84.2 | CCCCCC/C=C\CCCCCCCc1cccc(O)c1C(=O)O [PCM-0216327]
50 | 3.1 | Cc1cnc(C(=O)O)c[n+]1[O-] [PCM-0086103]
51 | -3.1 | CN1[C@@H]2CC[C@H]1CC(OC(c1ccccc1)c1ccccc1)C2 (some centres unmarked) [PCM-0086292]
52 | -4.7 | CN1CCN(CCCN2c3ccccc3Sc3ccc(C(F)(F)F)cc32)CC1 [PCM-0064852]
53 | 29 | COc1ccc(-c2ccc3cc(C(=O)O)ccc3c2)cc1C12CC3CC(CC(C3)C1)C2 [PCM-0090276]
54 | -16.3 | CCO[C@H]1O[C@@H]2O[C@@]3(C)CC[C@H]4[C@H](C)CC[C@@H]([C@H]1C)[C@@]24OO3 [PCM-0214993]
55 | 24.1 | C[C@H](CCC(=O)O)[C@H]1CC[C@H]2[C@@H]3[C@@H](O)C[C@@H]4C[C@H](O)CC[C@]4(C)[C@H]3CC[C@]12C [PCM-0214641]
56 | 48.3 | Cc1ncc(-c2ccnc(Nc3ccc(S(C)(=O)=O)cc3)n2)n1C(C)C [PCM-0095478]
57 | 10.1 | Cc1ccc(C(C)C)cc2c(C)ccc1-2 [PCM-0215089]
58 | 9 | CCOc1cc([C@@H](CS(C)(=O)=O)N2C(=O)c3cccc(NC(C)=O)c3C2=O)ccc1OC [PCM-0095620]
59 | -3.1 | Cc1ccc(S(=O)(=O)n2c(N)nc3ccccc32)cc1 [PCM-0095508]
60 | 53.1 | CC(C)NC(=O)C1CCC(n2c(NC(=O)c3ccc(F)cc3)nc3ccc(CN4CCC(C(C)(C)O)CC4)cc32)CC1 (centres unmarked) [PCM-0215859]
61 | -20.1 | Oc1ccc2c(c1)OC[C@@H]1c3cc4c(cc3O[C@H]21)OCO4 [PCM-0216297]
62 | 4.6 | OC1OC[C@@H](O)[C@@H](O)[C@H]1O (some centres unmarked) [PCM-0216193]

Row | Compound | inhibition at 10 µM [%]
63 | C/C(=C\c1csc(C)n1)[C@@H]1C[C@@H]2O[C@]2(C)CCC[C@H](C)[C@H](O)[C@@H](C)C(=O)C(C)(C)[C@@H](O)CC(=O)O1 [PCM-0094998] | -9.3
64 | O=C(O)CNC(=O)c1c(O)c2ccccc2n(Cc2ccccc2)c1=O [PCM-0095405] | -23.3
65 | Nc1ccc(O)cc1 [PCM-0216110] | 82.6
66 | CC(=O)O[C@H]1C[C@H](O[C@H]2[C@@H](O)C[C@H](O[C@H]3[C@@H](O)C[C@H](O[C@H]4CC[C@@]5(C)[C@H](CC[C@@H]6[C@@H]5C[C@@H](O)[C@]5(C)[C@@H](C7=CC(=O)OC7)CC[C@]65O)C4)O[C@@H]3C)O[C@@H]2C)O[C@H](C)[C@H]1O[C@@H]1O[C@H](CO)[C@@H](O)[C@H](O)[C@H]1O [PCM-0216197] | -4.6
67 | CC(C)=CCC[C@](C)(O)[C@H]1CC[C@]2(C)[C@@H]1[C@H](O)C[C@@H]1[C@@]3(C)CC[C@H](O)C(C)(C)[C@@H]3[C@@H](O[C@@H]3O[C@H](CO)[C@@H](O)[C@H](O)[C@H]3O)C[C@]12C [PCM-0216412] | -10.8
68 | OCCc1ccc(O)c(O)c1 [PCM-0214956] | -2.3
69 | O=Cc1ccccc1 [PCM-0216202] | -2.3
70 | CC(C)=CCC[C@](C)(O[C@@H]1O[C@H](CO[C@@H]2OC[C@@H](O)[C@H](O)[C@H]2O)[C@@H](O)[C@H](O)[C@H]1O)[C@H]1CC[C@]2(C)[C@@H]1[C@H](O)C[C@@H]1[C@@]3(C)CC[C@H](O[C@@H]4O[C@H](CO)[C@@H](O)[C@H](O)[C@H]4O)C(C)(C)[C@@H]3CC[C@]12C [PCM-0214676] | 35.8
71 | C[N+](C)(C)CCCCCC[N+](C)(C)C [PCM-0065242] | -14.5
